Measured values: PMC6332448, “SAR Studies Leading to the Identification of a Novel Series of Metallo-β-lactamase Inhibitors for the Treatment of Carbapenem-Resistant Enterobacteriaceae Infections That Display Efficacy in an Animal Infection Model” (ACS Infectious Diseases, 2018)
Where “and” joins values, the source holds several entries; their conditions need not be identical. Identical values can stand only once. Like-named read-outs stand apart in the source and are kept apart here.

Legend:
Assay in all cases: biochemical
IMP-1 = IMP-1 (Serratia marcescens, UniProt P52699); assay type: biochemical; details: for inhibition of IMP-1, in words: tested up to 200 μM
VIM-2 = VIM-2 (Escherichia coli, UniProt Q5U7L7)
NDM-1 = NDM-1 (Klebsiella pneumoniae, UniProt C7C422); assay type: biochemical; details: for IC50: 10 mM HEPES pH 7.5, 25 °C, average of at least two independent assays; for inhibition of NDM-1, in words: tested up to 200 μM
VIM-1 = VIM-1 (Pseudomonas aeruginosa, UniProt A0A0F7KYQ8); assay type: biochemical; details: for inhibition of VIM-1, in words: tested up to 200 μM
[1] = 300 μM imipenem, 10 mM HEPES pH 7.5, 25 °C, average of at least two independent assays, read-out: IMP-1 IC50
[2] = 300 μM imipenem, read-out: NDM-1 IC50
[3] = 300 μM imipenem, 10 mM HEPES pH 7.5, 25 °C, average of at least two independent assays, read-out: VIM-1 IC50

NDM-1, sequence (C7C422 29-270, looked up, species assumed): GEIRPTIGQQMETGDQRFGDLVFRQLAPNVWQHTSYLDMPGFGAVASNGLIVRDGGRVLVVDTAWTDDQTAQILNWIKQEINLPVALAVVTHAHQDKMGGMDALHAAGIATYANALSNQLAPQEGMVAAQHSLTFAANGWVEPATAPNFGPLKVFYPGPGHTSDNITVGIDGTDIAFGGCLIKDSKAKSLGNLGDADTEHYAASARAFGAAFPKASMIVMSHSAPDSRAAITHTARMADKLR
IMP-1, sequence (P52699 19-246, looked up, species assumed): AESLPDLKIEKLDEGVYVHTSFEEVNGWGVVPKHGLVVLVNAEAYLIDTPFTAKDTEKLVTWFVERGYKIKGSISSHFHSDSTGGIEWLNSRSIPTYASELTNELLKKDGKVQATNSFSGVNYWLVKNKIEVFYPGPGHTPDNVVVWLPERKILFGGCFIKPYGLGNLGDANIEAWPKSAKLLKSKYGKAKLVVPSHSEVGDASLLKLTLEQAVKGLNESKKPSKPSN

**Q.** What does the source list for `O=C(O)c1ccc2ccccc2n1` [Compound 7]?
**A.** IC50 (IMP-1): > 200 µM; inhibition of IMP-1, in words (IMP-1): no inhibition; IC50 (VIM-2): > 200 µM; IC50 (NDM-1; NDM-1 IC50, 300 μM imipenem): 40.9 µM; inhibition of NDM-1, in words (NDM-1): modest inhibition; IC50 (VIM-1): > 200 µM; inhibition of VIM-1, in words (VIM-1): no inhibition

**Q.** Which IC50 (IMP-1) does the source give for `Cn1cnc(C(=O)O)c1` [Compound 8] here?
**A.** > 200 µM

**Q.** What about the “inhibition of IMP-1, in words” value (IMP-1) of the same compound?
**A.** no detectable inhibition

**Q.** And the IC50 (VIM-2)?
**A.** > 200 µM

**Q.** What about the IC50 (NDM-1; NDM-1 IC50, 300 μM imipenem) of the same compound?
**A.** > 200 µM

**Q.** And the “inhibition of NDM-1, in words” value (NDM-1)?
**A.** no detectable inhibition

**Q.** And the IC50 (VIM-1)?
**A.** > 200 µM

**Q.** What about the “inhibition of VIM-1, in words” value (VIM-1) of the same compound?
**A.** no detectable inhibition

**Q.** How did the IC50 (IMP-1) turn out when `O=C(O)c1cnccn1` [Compound 9] was run?
**A.** > 200 µM

**Q.** What about the “inhibition of IMP-1, in words” value (IMP-1) of the same compound?
**A.** no detectable inhibition

**Q.** What about the IC50 (VIM-2) of the same compound?
**A.** > 200 µM

**Q.** And the IC50 (NDM-1; NDM-1 IC50, 300 μM imipenem)?
**A.** > 200 µM

**Q.** What about the “inhibition of NDM-1, in words” value (NDM-1) of the same compound?
**A.** no detectable inhibition

**Q.** What about the IC50 (VIM-1) of the same compound?
**A.** > 200 µM

**Q.** And the “inhibition of VIM-1, in words” value (VIM-1)?
**A.** no detectable inhibition

**Q.** For `O=C(O)c1cccnn1` [Compound 10], which IC50 (IMP-1) is on record?
**A.** > 200 µM

**Q.** What about the “inhibition of IMP-1, in words” value (IMP-1) of the same compound?
**A.** no detectable inhibition

**Q.** What about the IC50 (VIM-2) of the same compound?
**A.** > 200 µM

**Q.** What about the IC50 (NDM-1; NDM-1 IC50, 300 μM imipenem) of the same compound?
**A.** > 200 µM

**Q.** And the “inhibition of NDM-1, in words” value (NDM-1)?
**A.** no detectable inhibition

**Q.** What about the IC50 (VIM-1) of the same compound?
**A.** > 200 µM

**Q.** What about the “inhibition of VIM-1, in words” value (VIM-1) of the same compound?
**A.** no detectable inhibition

**Q.** `O=C(O)c1cc2ccccc2cn1` [Compound 11] was tested. Which “inhibition of IMP-1, in words” value (IMP-1) did it give?
**A.** no inhibition

**Q.** And the “inhibition of NDM-1, in words” value (NDM-1)?
**A.** modest inhibition

**Q.** And the “inhibition of VIM-1, in words” value (VIM-1)?
**A.** no inhibition

**Q.** Which IC50 (IMP-1) does the source give for `O=C(O)c1ncccc1-c1ccncc1` [Compound 12] here?
**A.** > 200 µM

**Q.** What about the IC50 (VIM-2) of the same compound?
**A.** > 200 µM

**Q.** And the IC50 (NDM-1; NDM-1 IC50, 300 μM imipenem)?
**A.** > 200 µM

**Q.** What about the IC50 (VIM-1) of the same compound?
**A.** > 200 µM

**Q.** What does the source list for `O=C(O)c1ncccc1-c1ccoc1` [Compound 13]?
**A.** IC50 (IMP-1): > 200 µM; IC50 (VIM-2): > 200 µM; IC50 (NDM-1; NDM-1 IC50, 300 μM imipenem): > 200 µM; IC50 (VIM-1): > 200 µM

**Q.** How did the IC50 (IMP-1) turn out when `O=C(O)c1ncccc1-c1ccc(F)c(F)c1` [Compound 14] was run?
**A.** > 200 µM

**Q.** And the IC50 (VIM-2)?
**A.** > 200 µM

**Q.** And the IC50 (NDM-1; NDM-1 IC50, 300 μM imipenem)?
**A.** > 200 µM

**Q.** What about the IC50 (VIM-1) of the same compound?
**A.** > 200 µM

**Q.** Which results are given for `O=C(O)c1cccc(-c2ccoc2)n1` [Compound 15]?
**A.** IC50 (IMP-1): > 200 µM; IC50 (VIM-2): > 200 µM; IC50 (NDM-1; NDM-1 IC50, 300 μM imipenem): 163 µM; IC50 (VIM-1): > 200 µM

**Q.** Which results are given for `O=C(O)c1cccc(-c2ccc(F)c(F)c2)n1` [Compound 16]?
**A.** IC50 (IMP-1): > 200 µM; IC50 (VIM-2): > 200 µM; IC50 (NDM-1; NDM-1 IC50, 300 μM imipenem): > 200 µM; IC50 (VIM-1): > 200 µM

**Q.** With `O=C(CCc1ccccc1)Nc1cccnc1C(=O)O` [Compound 19] as the compound, how does the IC50 (IMP-1; [1]) read?
**A.** 34.1 µM

**Q.** What about the IC50 (NDM-1; [2]) of the same compound?
**A.** 20.3 µM

**Q.** And the IC50 (VIM-1; [3])?
**A.** > 200 µM

**Q.** Which IC50 (IMP-1; [1]) does the source give for `CCCCC(=O)Nc1cccnc1C(=O)O` [Compound 20] here?
**A.** 157 µM

**Q.** What about the IC50 (NDM-1; [2]) of the same compound?
**A.** 11.1 µM

**Q.** What about the IC50 (VIM-1; [3]) of the same compound?
**A.** > 200 µM

**Q.** Which results are given for `O=C(Cc1c(Cl)cccc1Cl)Nc1cccnc1C(=O)O` [Compound 21]?
**A.** IC50 (IMP-1; [1]): > 200 µM; IC50 (NDM-1; [2]): 8.99 µM; IC50 (VIM-1; [3]): > 200 µM

**Q.** What does the source list for `O=C(Cc1cccs1)Nc1cccnc1C(=O)O` [Compound 23]?
**A.** IC50 (IMP-1): 146 µM; IC50 (VIM-2): 91.3 µM; IC50 (NDM-1; NDM-1 IC50, 300 μM imipenem): 6.56 µM and 6.6 µM; IC50 (VIM-1): 133 µM

**Q.** With `COc1ccc(C(=O)Nc2cccc(C(=O)O)n2)cc1` [Compound 24] as the compound, how does the IC50 (IMP-1; [1]) read?
**A.** 156 µM

**Q.** And the IC50 (NDM-1; [2])?
**A.** 20.3 µM

**Q.** And the IC50 (VIM-1; [3])?
**A.** > 200 µM

**Q.** Which IC50 (IMP-1; [1]) does the source give for `O=C(O)c1cccc(NC(=O)c2cocn2)n1` [Compound 25] here?
**A.** > 200 µM

**Q.** What about the IC50 (NDM-1; [2]) of the same compound?
**A.** 55.9 µM

**Q.** What about the IC50 (VIM-1; [3]) of the same compound?
**A.** > 200 µM

**Q.** What does the source list for `CCCCC(=O)Nc1cccc(C(=O)O)n1` [Compound 26]?
**A.** IC50 (IMP-1; [1]): > 200 µM; IC50 (NDM-1; [2]): 19.4 µM; IC50 (VIM-1; [3]): > 200 µM

**Q.** How did the IC50 (IMP-1; [1]) turn out when `O=C(Cc1c(Cl)cccc1Cl)Nc1cccc(C(=O)O)n1` [Compound 27] was run?
**A.** 80 µM

**Q.** What about the IC50 (NDM-1; [2]) of the same compound?
**A.** > 200 µM

**Q.** What about the IC50 (VIM-1; [3]) of the same compound?
**A.** > 200 µM

**Q.** Which IC50 (IMP-1; [1]) does the source give for `O=C(Cc1ccc(Cl)c(Cl)c1)Nc1cccc(C(=O)O)n1` [Compound 28] here?
**A.** 82.2 µM

**Q.** What about the IC50 (NDM-1; [2]) of the same compound?
**A.** 3.56 µM

**Q.** And the IC50 (VIM-1; [3])?
**A.** > 200 µM

**Q.** Which IC50 (IMP-1; [1]) does the source give for `O=C(Cc1cccs1)Nc1cccc(C(=O)O)n1` [Compound 29] here?
**A.** > 200 µM

**Q.** What about the IC50 (NDM-1; [2]) of the same compound?
**A.** > 200 µM

**Q.** What about the IC50 (VIM-1; [3]) of the same compound?
**A.** > 200 µM

**Q.** For `CS(=O)(=O)c1ccc(S(=O)(=O)Nc2cccnc2C(=O)O)cc1` [Compound 30], which IC50 (IMP-1; [1]) is on record?
**A.** > 200 µM

**Q.** What about the IC50 (NDM-1; [2]) of the same compound?
**A.** 69.9 µM

**Q.** And the IC50 (VIM-1; [3])?
**A.** > 200 µM

**Q.** Which IC50 (IMP-1; [1]) does the source give for `CS(=O)(=O)Nc1cccnc1C(=O)O` [Compound 31] here?
**A.** > 200 µM

**Q.** What about the IC50 (NDM-1; [2]) of the same compound?
**A.** 68.8 µM

**Q.** What about the IC50 (VIM-1; [3]) of the same compound?
**A.** > 200 µM

**Q.** `N#Cc1cccc(S(=O)(=O)Nc2cccnc2C(=O)O)c1` [Compound 33] was tested. Which IC50 (IMP-1; [1]) did it give?
**A.** > 200 µM

**Q.** And the IC50 (NDM-1; [2])?
**A.** 148 µM

**Q.** And the IC50 (VIM-1; [3])?
**A.** > 200 µM

**Q.** Which IC50 (IMP-1; [1]) does the source give for `O=C(O)c1ncccc1NS(=O)(=O)c1ccccc1Cl` [Compound 34] here?
**A.** > 200 µM

**Q.** And the IC50 (NDM-1; [2])?
**A.** > 200 µM

**Q.** What about the IC50 (VIM-1; [3]) of the same compound?
**A.** > 200 µM

**Q.** With `O=C(O)c1ncccc1NS(=O)(=O)c1ccc(F)cc1` [Compound 35] as the compound, how does the IC50 (IMP-1; [1]) read?
**A.** > 200 µM

**Q.** And the IC50 (NDM-1; [2])?
**A.** 52.1 µM

**Q.** What about the IC50 (VIM-1; [3]) of the same compound?
**A.** > 200 µM
